What was measured:
[1] = Half life in human liver microsomes; type: ADME, Microsome
[2] = biological target: Cytochrome P450 2C19 (Homo sapiens, UniProt P33261); test: Inhibition of CYP2C19 (unknown origin); type: ADME
[3] = biological target: T1, Oxysterols receptor LXR-alpha (Homo sapiens, UniProt Q13133); test: Transactivation of human GAL4-fused LXRalpha expressed in African green monkey CV1 cells; type: cell-based
T1 sequence (Q13133 whole entry): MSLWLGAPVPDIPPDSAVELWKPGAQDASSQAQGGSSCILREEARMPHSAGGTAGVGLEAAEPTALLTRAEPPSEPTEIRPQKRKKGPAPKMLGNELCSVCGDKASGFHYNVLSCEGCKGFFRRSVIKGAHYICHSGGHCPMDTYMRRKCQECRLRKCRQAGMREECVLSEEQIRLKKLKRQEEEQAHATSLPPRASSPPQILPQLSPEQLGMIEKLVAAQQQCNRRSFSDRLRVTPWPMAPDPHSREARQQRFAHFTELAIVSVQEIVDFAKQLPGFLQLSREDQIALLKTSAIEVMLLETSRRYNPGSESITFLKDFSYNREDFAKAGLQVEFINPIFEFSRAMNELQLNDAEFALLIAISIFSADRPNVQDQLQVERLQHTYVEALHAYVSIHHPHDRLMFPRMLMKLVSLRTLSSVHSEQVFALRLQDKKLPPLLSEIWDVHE

[4] = biological target: T2, Cytochrome P450 2C8 (Homo sapiens, UniProt P10632); test: Inhibition of CYP2C8 (unknown origin); type: ADME
T2 sequence (P10632 whole entry): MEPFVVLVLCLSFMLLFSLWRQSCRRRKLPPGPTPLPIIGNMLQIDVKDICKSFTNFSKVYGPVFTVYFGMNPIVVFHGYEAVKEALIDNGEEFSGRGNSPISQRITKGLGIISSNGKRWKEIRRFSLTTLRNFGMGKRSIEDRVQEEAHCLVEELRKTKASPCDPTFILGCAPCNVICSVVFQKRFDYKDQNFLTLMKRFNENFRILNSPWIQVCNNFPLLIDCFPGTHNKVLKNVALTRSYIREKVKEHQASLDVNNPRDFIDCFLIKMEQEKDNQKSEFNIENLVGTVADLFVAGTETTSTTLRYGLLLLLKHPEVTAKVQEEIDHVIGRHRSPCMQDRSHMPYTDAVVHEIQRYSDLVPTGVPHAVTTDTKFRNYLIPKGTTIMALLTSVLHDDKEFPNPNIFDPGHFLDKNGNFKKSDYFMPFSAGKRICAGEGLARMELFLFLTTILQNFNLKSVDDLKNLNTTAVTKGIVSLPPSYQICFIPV

[5] = Tmax in Balb/c mouse at 10 mg/kg, po; type: ADME, organism-based; settings: in vivo
[6] = Cmax in Balb/c mouse at 10 mg/kg, po; type: ADME, organism-based; parameters: dose 10 mg/kg, route oral; settings: in vivo
[7] = biological target: T3, Oxysterols receptor LXR-beta (Homo sapiens, UniProt P55055); test: Transactivation of human GAL4-fused LXRbeta expressed in African green monkey CV1 cells; type: cell-based
T3 sequence (P55055 whole entry): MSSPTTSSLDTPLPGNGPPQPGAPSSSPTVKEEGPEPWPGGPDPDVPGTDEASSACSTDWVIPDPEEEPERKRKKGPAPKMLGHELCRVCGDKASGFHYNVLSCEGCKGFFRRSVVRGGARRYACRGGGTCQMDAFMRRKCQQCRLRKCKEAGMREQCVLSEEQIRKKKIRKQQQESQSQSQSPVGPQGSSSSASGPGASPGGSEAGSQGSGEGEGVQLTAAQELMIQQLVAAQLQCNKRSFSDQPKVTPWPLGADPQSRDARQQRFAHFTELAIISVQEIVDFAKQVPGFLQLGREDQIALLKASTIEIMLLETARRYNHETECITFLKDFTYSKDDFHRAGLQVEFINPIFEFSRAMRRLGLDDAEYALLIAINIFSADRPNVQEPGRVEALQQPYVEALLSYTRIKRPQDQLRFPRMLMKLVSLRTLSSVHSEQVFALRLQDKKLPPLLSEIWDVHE

[8] = biological target: T4, PXR (Homo sapiens, UniProt O75469); test: Transactivation of PXR (unknown origin) expressed in human HepG2 cells assessed as maximum receptor activation response relative to control; type: cell-based; settings: human HepG2 cells that express PXR, read-out: %max
T4 sequence (O75469 whole entry): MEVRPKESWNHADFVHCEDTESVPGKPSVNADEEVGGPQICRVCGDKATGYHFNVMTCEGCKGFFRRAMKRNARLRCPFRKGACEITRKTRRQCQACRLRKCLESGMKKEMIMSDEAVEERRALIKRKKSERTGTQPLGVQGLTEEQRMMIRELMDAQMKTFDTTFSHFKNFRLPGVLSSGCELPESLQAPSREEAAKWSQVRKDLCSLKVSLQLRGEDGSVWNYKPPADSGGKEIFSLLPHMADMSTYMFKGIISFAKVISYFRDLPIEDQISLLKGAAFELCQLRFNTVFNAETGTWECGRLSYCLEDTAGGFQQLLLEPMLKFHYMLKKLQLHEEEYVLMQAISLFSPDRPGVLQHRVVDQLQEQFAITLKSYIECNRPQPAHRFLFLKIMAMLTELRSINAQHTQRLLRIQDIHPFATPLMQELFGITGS

Sequence of Cytochrome P450 2C19 (P33261 whole entry, the tested form may be a part): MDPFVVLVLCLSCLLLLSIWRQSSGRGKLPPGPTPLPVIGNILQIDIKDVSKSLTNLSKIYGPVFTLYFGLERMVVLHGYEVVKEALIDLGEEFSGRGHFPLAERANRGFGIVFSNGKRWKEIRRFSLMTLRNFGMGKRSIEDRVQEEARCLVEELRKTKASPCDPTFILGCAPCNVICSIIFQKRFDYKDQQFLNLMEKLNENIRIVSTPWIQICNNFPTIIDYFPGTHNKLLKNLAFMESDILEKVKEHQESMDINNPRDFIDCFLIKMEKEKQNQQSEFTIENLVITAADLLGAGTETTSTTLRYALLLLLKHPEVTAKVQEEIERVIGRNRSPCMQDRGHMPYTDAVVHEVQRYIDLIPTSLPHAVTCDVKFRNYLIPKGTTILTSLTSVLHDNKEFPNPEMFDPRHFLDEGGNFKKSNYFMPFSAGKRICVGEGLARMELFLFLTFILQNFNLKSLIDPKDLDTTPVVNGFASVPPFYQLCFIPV

SMILES	half-life [1] [h]	IC50 [2] [µM]	EC50 [3] [µM]	IC50 [4] [µM]	Tmax [5] [h]	Cmax [6] [µM]	EC50 [7] [µM]	Emax [8] [%]
O=C(O)C12CCC(C(=O)N3CC[C@](c4ccc(C(F)(C(F)(F)F)C(F)(F)F)cc4)(S(=O)(=O)c4ccc(F)cc4)C3)(CC1)CC2	> 2	> 10	> 7.5	> 10	1	6.7	> 7.5	6
CC[C@]1(C(=O)N2CC[C@](c3ccc(C(F)(C(F)(F)F)C(F)(F)F)cc3)(S(=O)(=O)c3ccc(F)cc3)C2)CC[C@H](C(=O)O)CC1	> 2	> 10	> 7.5	> 10	0.5	3.7	> 7.5	6

Reference: ChEMBL document CHEMBL4387773, “Identification of potent, selective and orally bioavailable phenyl ((R)-3-phenylpyrrolidin-3-yl)sulfone analogues as RORγt inverse agonists” (Bioorg Med Chem Lett, 2019)
